Laboratory results taken from patent US8691846B2, “Piperidine sulphonamide derivatives” (Hoffmann-La Roche, Inc., priority 2008, dated 2014).
Like-named read-outs stand apart in the source and are kept apart here.

Biological target: T1, human orexin-2 (hOX2) receptors (Homo sapiens, UniProt O43614)
T1 construct: expressed in transfected cells
T1 sequence (O43614 1-444): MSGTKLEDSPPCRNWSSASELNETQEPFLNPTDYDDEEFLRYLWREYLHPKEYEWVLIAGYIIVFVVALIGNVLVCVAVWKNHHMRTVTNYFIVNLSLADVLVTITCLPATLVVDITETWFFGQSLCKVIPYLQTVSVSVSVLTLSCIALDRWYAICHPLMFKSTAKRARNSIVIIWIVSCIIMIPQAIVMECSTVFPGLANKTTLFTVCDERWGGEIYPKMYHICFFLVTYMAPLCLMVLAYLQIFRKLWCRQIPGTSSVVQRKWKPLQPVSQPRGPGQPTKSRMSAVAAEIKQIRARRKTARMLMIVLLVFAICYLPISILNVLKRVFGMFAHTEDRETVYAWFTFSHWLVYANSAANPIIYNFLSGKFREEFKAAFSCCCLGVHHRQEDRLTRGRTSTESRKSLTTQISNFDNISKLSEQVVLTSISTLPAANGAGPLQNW
Assay: Intracellular Ca2+ mobilization assay (FLIPR), antagonism of orexin-A in CHO(dHFr-) cells expressing hOX2
Assay type: cell-based
Conditions: CHO(dHFr-)-OX2R cells, orexin-A at EC80 as agonist, Kb=IC50/(1+[A]/EC50)
Protocol: Intracellular Ca^2+ Mobilization Assay
The Chinese Hamster Ovary (dHFr−) mutant cell line stably expressing human orexin-1 (hOX1) or human orexin-2 (hOX2) receptors were maintained in Dulbecco's Modified Eagle Medium (1×) with GlutaMax™ 1, 4500 mg/L D-Glucose and Sodium Pyruvate (Catalog No. 31966-021, Invitrogen, Carlsbad, Calif.), 5% dialyzed fetal calf serum (Catalog No. 26400-044), 100 μg/ml penicillin and 100 μg/ml streptomycin. The cells were seeded at 5×10^4 cells/well in the poly-D-lysine treated, 96-well, black/clear-bottomed plates (Catalog No. BD356640, BD Biosciences, Palo Alto, Calif.). 24 h later, the cells were loaded for 1 h at 37° C. with 4 μM Flou-4 acetoxymethyl ester (Catalog No. F-14202, Molecular Probes, Eugene, Oreg.) in FLIPR buffer (1×HBSS, 20 mM HEPES, 2.5 mM Probenecid). Hanks' Balanced Salt Solution (HBSS) (10×) (catalog No. 14065-049) and HEPES (1M) (catalog No. 15630-056) were purchased from Invitrogen, Carlsbad, Calif. Probenecid (250 mM) (catalog No. P8761) was from Sigma, Buchs, Switzerland. The cells were washed five times with FLIPR buffer to remove excess dye and intracellular calcium mobilization, [Ca^2′]I were measured using a Fluorometric Imaging Plate Reader (FLIPR-96, Molecular Devices, Menlo Park, Calif.) as described previously (Malherbe et al., Mol. Pharmacol., 64, 823-832, 2003). Orexin A (catalog No. 1455, Toris Cookson Ltd, Bristol, UK) was used as agonist. Orexin A (50 mM stock solution in DMSO) was diluted in FLIPR buffer+0.1% BSA. The EC50 and EC80 values of orexin-A were measured daily from standard agonist concentration-response curves in CHO(dHFr−)-OX1R and -OX2R cell lines. All compounds were dissolved in 100% DMSO Inhibition curves were determined by addition of 11 concentrations (0.0001-10 μM) of inhibitory compounds and using EC80 value of orexin-A as agonist (a concentration which gave 80% of max agonist response, determined daily). The antagonists were applied 25 min (incubation at 37° C.) before the application of the agonist. Responses were measured as peak increase in fluorescence minus basal, normalized to the maximal stimulatory effect induced by EC80 value of orexin-A or orexin-B Inhibition curves were fitted according to the Hill equation: y=100/(1+(x/IC50)^nH), where nH=slope factor using Excel-fit 4 software (Microsoft).
Kb values were calculated according to the following equation Kb=IC50/(1+[A]/EC50) where A is the concentration of agonist added which is very close to agonist EC80 value, and IC50 and EC50 values were derived from the antagonist inhibition and orexin-A or B agonist curves, respectively.

| Compound | Kb (Table 1, read-out: Kb hOx2) [µM] | Kb (read-out: Kb (μM) OX2R (human)) [µM] |
| --- | --- | --- |
| O=C(C1CCCN(S(=O)(=O)c2ccccc2)C1)N1CCCCC1c1ccccc1 (centres unmarked) [Example 12, (1-Benzenesulfonyl-piperidin-3-yl)-(2-phenyl-piperidin-1-yl)-methanone] | 0.309 | – |
| O=C(C1CCCN(S(=O)(=O)c2ccccc2Cl)C1)N1CCCC1c1cc(Cl)cc(Cl)c1 (centres unmarked) [Example 19, [1-(2-Chloro-benzenesulfonyl)-piperidin-3-yl]-[2-(3,5-dichloro-phenyl)-pyrrolidin-1-yl]-methanone] | 0.67 | – |
| O=C(C1CCCN(S(=O)(=O)c2ccccc2Cl)C1)N1CCCC1c1ccc(F)cc1 (centres unmarked) [Example 3, [1-(2-Chloro-benzenesulfonyl)-piperidin-3-yl]-[2-(4-fluoro-phenyl)-pyrrolidin-1-yl]-methanone] | – | 0.0788 |
| O=C(C1CCCN(S(=O)(=O)c2ccccc2Cl)C1)N1CCCC1c1ccccc1Cl (centres unmarked) [Example 17, [1-(2-Chloro-benzenesulfonyl)-piperidin-3-yl]-[2-(2-chloro-phenyl)-pyrrolidin-1-yl]-methanone] | – | 0.0113 |
| O=C(C1CCCN(S(=O)(=O)c2ccc(F)cc2)C1)N1CCCC1c1ccccc1 (centres unmarked) [Example 13, [1-(4-Fluoro-benzenesulfonyl)-piperidin-3-yl]-(2-phenyl-pyrrolidin-1-yl)-methanone] | 0.334 | – |
| O=C(C1CCCN(S(=O)(=O)c2ccccc2)C1)N1CCCC1c1ccccc1 (centres unmarked) [Example 15, (1-Benzenesulfonyl-piperidin-3-yl)-(2-phenyl-pyrrolidin-1-yl)-methanone] | 0.258 | – |
| COc1ccccc1S(=O)(=O)N1CCCC(C(=O)N2CCCCC2c2ccccc2)C1 (centres unmarked) [Example 10, [1-(2-Methoxy-benzenesulfonyl)-piperidin-3-yl]-(2-phenyl-piperidin-1-yl)-methanone] | – | 0.0226 |
| COc1ccc(Cl)cc1S(=O)(=O)N1CCCC(C(=O)N2CCCC2c2ccccc2)C1 (centres unmarked) [Example 14, [1-(5-Chloro-2-methoxy-benzenesulfonyl)-piperidin-3-yl]-(2-phenyl-pyrrolidin-1-yl)-methanone] | – | 0.0138 |
| O=C(C1CCCN(S(=O)(=O)c2ccc(F)cc2)C1)N1CCCCC1c1ccccc1 (centres unmarked) [Example 6, [1-(4-Fluoro-benzenesulfonyl)-piperidin-3-yl]-(2-phenyl-piperidin-1-yl)-methanone] | 0.756 | – |
| O=C(C1CCCN(S(=O)(=O)c2ccccc2Cl)C1)N1CCCC1c1ccccc1 (centres unmarked) [Example 7, [1-(2-Chloro-benzenesulfonyl)-piperidin-3-yl]-(2-phenyl-pyrrolidin-1-yl)-methanone] | – | 0.02 |
| COc1ccc(Cl)cc1S(=O)(=O)N1CCCC(C(=O)N2CCCCC2c2ccccc2)C1 (centres unmarked) [Example 16, [1-(5-Chloro-2-methoxy-benzenesulfonyl)-piperidin-3-yl]-(2-phenyl-piperidin-1-yl)-methanone] | – | 0.0592 |
| COc1cccc(S(=O)(=O)N2CCCC(C(=O)N3CCCC3c3ccccc3)C2)c1 (centres unmarked) [Example 9, [1-(3-Methoxy-benzenesulfonyl)-piperidin-3-yl]-(2-phenyl-pyrrolidin-1-yl)-methanone] | 0.122 | – |
| COc1ccccc1S(=O)(=O)N1CCCC(C(=O)N2CCCC2c2ccccc2)C1 (centres unmarked) [Example 11, [1-(2-Methoxy-benzenesulfonyl)-piperidin-3-yl]-(2-phenyl-pyrrolidin-1-yl)-methanone] | – | 0.0053 |
| O=C(C1CCCN(S(=O)(=O)c2ccccc2Cl)C1)N1CCCCC1c1ccccc1 (centres unmarked) [Example 4, [1-(2-Chloro-benzenesulfonyl)-piperidin-3-yl]-(2-phenyl-piperidin-1-yl)-methanone] | 0.118 | – |
| O=C(C1CCCN(S(=O)(=O)c2cccc(Cl)c2)C1)N1CCCCC1c1ccccc1 (centres unmarked) [Example 5, [1-(3-Chloro-benzenesulfonyl)-piperidin-3-yl]-(2-phenyl-piperidin-1-yl)-methanone] | 0.55 | – |
| O=C(C1CCCN(S(=O)(=O)c2ccccc2Cl)C1)N1CCCC1c1ccc(Cl)c(Cl)c1 (centres unmarked) [Example 18, [1-(2-Chloro-benzenesulfonyl)-piperidin-3-yl]-[2-(3,4-dichloro-phenyl)-pyrrolidin-1-yl]-methanone] | 0.75 | – |
| O=C(C1CCCN(S(=O)(=O)c2cccc(Cl)c2)C1)N1CCCC1c1ccccc1 (centres unmarked) [Example 8, [1-(3-Chloro-benzenesulfonyl)-piperidin-3-yl]-(2-phenyl-pyrrolidin-1-yl)-methanone] | – | 0.0219 |
